Assays:
[1] = test system: A2780 cells; experiment: A2780 Proliferation Assay ±NAM (Nicotinamide); assay type: cell-based; conditions: Homo sapiens, A2780, 72 h, 10 mM nicotinamide added to the growth medium, read-out: IC50 (proliferation of A2780 cells with 10 mM nicotinamide)
Description: The purpose of this assay is to measure the ability of a compound to inhibit proliferation of A2780 cells (the NCI-DCTD Tumor repository) dependent on the NAMPT-mediated NAD^+ formation in the presence or absence of higher concentrations of NAM (10 mM) in vitro. The A2780 cell proliferation assay uses assay-ready frozen cells. To prepare assay-ready frozen A2780 cells, A2780 cells, an ovarian cancer cell line, are cultured in growth media containing RPMI 1640 (Gibco 30-2001) supplemented with 10% FBS, in T-150 flasks for 3-4 days. Cells are then treated with 4 mL of 0.25% (v/v) trypsin for 1 minute (Hyclone SH30042). Trypsin-treated cells are then diluted with 10 mL of growth media, and the cell slurry is gently mixed and then decanted to a centrifuge tube. Cells are counted and then pelleted by centrifugation at 1400 rpm for 5 minutes. After centrifugation the supernatant is removed and the cell pellets are re-suspended in GIBCO® RECOVERY™ Cell Culture Freezing Medium (Invitrogen 12648-010) at 2-5×10^6 cells/mL and then aliquoted at 1 mL volumes into cryovials. Cryovials are stored initially at −80° C. for 16 hours, and then transferred to liquid nitrogen for long term storage.
One day before the planned initiation of compound treatment portion of the assay, one vial of assay ready frozen cells is thawed, and the cells are washed with 50 mL of growth medium. Cells are counted and then diluted to 2.8×10^4 cells/mL and then plated at a rate of 2500 cells/well (90 μL per well) to BD Poly-D-Lysine, 96 well black plates (BD Biocoat 35-4640). Plates are then covered and incubated overnight under 5% CO2 at 37° C. The next day in a separate plate (V bottom Nunc 249946), a ten-point compound dilution series for each compound is prepared in growth media containing 2% DMSO (v/v, 0.2% final) with or without 100 mM NAM (10 mM final). Then 10 μL of compounds after a ten-point series dilution from either 2 or 0.1 μM (depending potency of each compound) to 50 pM or 5 pM (final) are added to the wells of the cell plates. Cell plates are covered and incubated for 72 hours under 5% CO2 at 37° C.
On the day of the viability assessment, one vial of GF-AFC substrate (CELL TITER-FLUOR™ Cell Viability Assay Kit, Promega G6081) is vortexed and the substrate is transferred to one vial of thawed CELL TITER-FLUOR™ Assay Buffer. The resulting CELL TITER-FLUOR™ reagent is then vortexed well to thoroughly dissolve the substrate. The CELL TITER-FLUOR™ reagent is then diluted (1:2) in growth medium and 50 μL of diluted CELL TITER-FLUOR™ reagent is added to each well of the cell plate. The cell plate is covered and incubated under 5% CO2 at 37° C. for 1-3 hours. Finally the cell plates are removed from the incubator and the well fluorescence is measured on an Envision® Multilabel Reader (Perkin Elmer, λeX 355/λem 495). Fluorescence from compound treated wells is compared to the no cell and no compound treatment control wells to calculate percent inhibition. The percent inhibition and ten-point compound concentration data is fit to a four-parameter logistic equation using ACTIVITYBASE 4.0 Equation 205. Each compound is tested 2-4 times in this assay.

[2] = test system: NCI-H1155 Tumor Xenografts; experiment: LC-MS Analysis of NAD+ in NCI-H1155 Tumor Xenografts; assay type: in vivo, mice; conditions: oral gavage
Description: (§1) The purpose of this assay is to measure effects of NAMPT inhibitors on NAD^+ formation in cancer cells. LC-MS analysis of NAD^+ metabolites: nicotinamide mononucleotide (NMN), NAD^+, reduced nicotinamide adenine dinucleotide (NADH), and nicotinamide adenine dinucleotide phosphate (NADP) is performed on an HPLC system coupled to a Thermo Quantum Ultra triple quadrupole mass spectrometer operated in positive heated electrospray mode with selected reaction monitoring detection. For cell extracts, 50 μL of extract and 10 μL of 10 μM internal standard (IS) solution is transferred to a 96-well plate, dried under nitrogen and reconstituted in 50 μL of water. For tissue extracts, 20 μL of extract and 10 μL of IS solution are dried and reconstituted in 50 μL water. The IS solution contains 10 μM nicotinamide-d4 (C/D/N Isotopes), nicotinic acid-d4 (C/D/N Isotopes), nicotinamide mononucleotide-d4 (prepared by custom synthesis) and nicotinamide 1,N^6-ethenoadenine dinucleotide in methanol. The metabolites are separated on a Waters XBRIDGE™ Amide (2.1×50 mm, 3 μm) with an injection volume of 10 μL and a flow rate of 1 mL/minute using 10 mM ammonium acetate in 95% acetonitrile for mobile phase A and 10 mM ammonium acetate in 50% acetonitrile for mobile phase B. The gradient is as follows: 0 minutes, 0% B; 2.5 minutes, 70% B; 2.51 minutes, 100% B; 2.8 minutes, 100% B; 2.81 minutes, 0% B, 3.6 minutes, 0% B.
(§2) The purpose of this assay is to measure the effects of NAMPT inhibitors on NAD^+ levels in vivo as described above. Tumors are grown and treated as described below for efficacy in xenograft tumor models below (7 animals/group). Each compound is also formulated as described for efficacy in xenograft tumor models below. Vehicle is 20% of CAPTISOL® and 25 mM of phosphate buffer, pH 2 without compound. After the completion of the treatment, tumor tissues (˜50 mg each) are homogenized in an ice cold extraction buffer (1 mL of 70% methanol/water; HPLC grade for 2 minutes in a tissue lyser II (QIAGEN™) at frequency 30 Hz. The resulting preparations are centrifuged at 14000×g for 6 minutes. The supernatant fractions (500 μL each) are collected and extracted with chloroform (0.5 mL). The aqueous fractions (0.3 mL each) are collected into a 96-well plate ready for LC-MS analysis. The LC-MS analysis of NAD metabolites is performed as described above.
(§3) The purpose of this assay is to measure reduction in tumor volume in response to test compound administration. A2780 and NCI-H1155 (NSCLC) cells are grown as described above for IVTI studies. Cells are harvested and injected subcutaneously onto the rear flank of nude mice. When tumors are established (7-21 days after implant), animals are randomized and grouped into control and test groups (7 animals/group). The test compound is formulated in 20% of CAPTISOL® and 25 mM of phosphate buffer, pH 2. Test compound and vehicle (20% of CAPTISOL® and 25 mM of phosphate buffer, pH 2 without compound) are administered by oral gavage. Tumor response is determined by tumor volume measurement (caliper) performed twice a week during the course of treatment and reported as percent of tumor volume of each treatment group divided by tumor volume of the vehicle control group. […]

[3] = test system: A2780 Tumor Xenografts; experiment: LC-MS Analysis of NAD+ in A2780 Tumor Xenografts; assay type: in vivo, mice; conditions: oral gavage
Description: as §1, §2, §3

Compound | IC50 [1] [nM] | NAD levels (pmol/mg tissue) ([2]; 2.5 mg/kg (BID)) | NAD levels (pmol/mg tissue) ([2]; 5 mg/kg (BID)) | NAD levels (pmol/mg tissue) ([2]; 10 mg/kg (BID)) | NAD levels (pmol/mg tissue) ([2]; 20 mg/kg (BID)) | NAD levels (pmol/mg tissue) ([3]; 5 mg/kg (BID)) | NAD levels (pmol/mg tissue) ([3]; 10 mg/kg (BID)) | NAD levels (pmol/mg tissue) ([3]; 20 mg/kg (BID)) | NAD levels (pmol/mg tissue) ([2]; 8 mg/kg (BID)) | NAD levels (pmol/mg tissue) ([2]; 16 mg/kg (BID)) | NAD levels (pmol/mg tissue) ([2]; 32 mg/kg (BID)) | NAD levels (pmol/mg tissue) ([3]; 8 mg/kg (BID)) | NAD levels (pmol/mg tissue) ([3]; 16 mg/kg (BID)) | NAD levels (pmol/mg tissue) ([3]; 32 mg/kg (BID))
CC(C)(O)CS(=O)(=O)Nc1ccc2c(c1)CCN(C(=O)COc1cccnc1)C2 [Example 1, 2-Hydroxy-2-methyl-N-[2-[2-(3-pyridyloxy)acetyl]-3,4-dihydro-1H-isoquinolin-6-yl]propane-1-sulfonamide] | > 100 | 11.38 | 7.48 | 3.63 | 1.82 | 5.04 | 2.55 | 3.29 |  |  |  |  |  | 
COCCS(=O)(=O)Nc1ccc2c(c1)CCN(C(=O)COc1cccnc1)C2 [Example 2, 2-Methoxy-N-[2-[2-(3-pyridyloxy)acetyl]-3,4-dihydro-1H-isoquinolin-6-yl]ethanesulfonamide] | > 100 |  |  |  |  |  |  |  | 5.19 | 1.98 | 0.84 | 3.97 | 6.52 | 6.38

Source: US20160229835A1, “NOVEL PYRIDYLOXYACETYL TETRAHYDROISOQUINOLINE COMPOUNDS USEFUL AS NAMPT INHIBITORS” (ELI LILLY AND COMPANY, priority 2013, published 2016)
